Active and inactive are the calls of the source. No cut-off for these calls is given here.
Key:
[1] = tested on: Human immunodeficiency virus 1; assay: Antiviral activity against wild type HIV1 NL4-3 infected in human TZM-bl cells assessed as inhibition of viral entry into cells after 48 hrs by single-cycle infection assay; assay type: functional, organism-based; details: Human immunodeficiency virus 1, NL4-3, TZM-bl
[2] = tested on: Human immunodeficiency virus 1; assay: Antiviral activity against HIV1 NL4-3 pseudovirus infected in human TZM-bl cells assessed as inhibition of viral entry into cells after 48 hrs by single-cycle infection assay; assay type: functional, organism-based; details: Human immunodeficiency virus 1, NL4-3, TZM-bl
[3] = tested on: Human immunodeficiency virus 1; assay: Antiviral activity against ENF-resistant HIV1 NL4-3 harboring gp41 N-terminal heptad repeat I37T mutant infected in human TZM-bl cells assessed as inhibition of viral entry into cells after 48 hrs by single-cycle infection assay; assay type: functional, organism-based
[4] = tested on: Human immunodeficiency virus 1; assay: Antiviral activity against ENF-resistant HIV1 NL4-3 harboring gp41 N-terminal heptad repeat D36S/V38M double mutant infected in human TZM-bl cells assessed as inhibition of viral entry into cells after 48 hrs by single-cycle infection assay; assay type: functional, organism-based
[5] = tested on: Human immunodeficiency virus 1; assay: Antiviral activity against HIV-1 SF162 pseudovirus infected in human TZM-bl cells assessed as inhibition of viral entry into cells after 48 hrs by single-cycle infection assay; assay type: functional, organism-based; details: Human immunodeficiency virus 1, SF162, TZM-bl
[6] = tested on: Human immunodeficiency virus 1; assay: Ratio of IC50 for ENF-resistant HIV1 NL4-3 harboring gp41 N-terminal heptad repeat I37T mutant to IC50 for wild type HIV1 NL4-3; assay type: functional
[7] = target: Envelope glycoprotein gp160 (Human immunodeficiency virus type 1 group M subtype B (isolate HXB2)(HIV-1)) (UniProt P04578); assay: Binding affinity to HIV-1 HXB2 gp41 N-terminal heptad repeat assessed as thermostability of protein-compound complex at 10 uM after 30 mins by CD spectroscopic analysis; details: Human immunodeficiency virus 1
[8] = target: Envelope glycoprotein gp160 (Human immunodeficiency virus 1) (UniProt Q72502); assay: Binding affinity to HIV1 NL4-3 gp41 N-terminal heptad repeat V38A/N42T double mutant after 30 mins by CD spectroscopic analysis
[9] = tested on: Human immunodeficiency virus 1; assay: Antiviral activity against ENF-resistant HIV1 NL4-3 harboring gp41 N-terminal heptad repeat N43K mutant infected in human TZM-bl cells assessed as inhibition of viral entry into cells after 48 hrs by single-cycle infection assay; assay type: functional, organism-based
[10] = tested on: Human immunodeficiency virus 1; assay: Ratio of IC50 for ENF-resistant HIV1 NL4-3 harboring gp41 N-terminal heptad repeat I37T/N43K double mutant to IC50 for wild type HIV1 NL4-3; assay type: functional
[11] = target: Envelope glycoprotein gp160 (Human immunodeficiency virus 1) (UniProt Q72502); assay: Binding affinity to HIV1 NL4-3 gp41 N-terminal heptad repeat Q40H mutant after 30 mins by CD spectroscopic analysis
[12] = tested on: Human immunodeficiency virus 1; assay: Ratio of IC50 for ENF-resistant HIV1 NL4-3 harboring gp41 N-terminal heptad repeat N43K mutant to IC50 for wild type HIV1 NL4-3; assay type: functional
[13] = tested on: Human immunodeficiency virus 1; assay: Antiviral activity against ENF-resistant HIV1 NL4-3 harboring gp41 N-terminal heptad repeat V38A mutant infected in human TZM-bl cells assessed as inhibition of viral entry into cells after 48 hrs by single-cycle infection assay; assay type: functional, organism-based
[14] = tested on: Human immunodeficiency virus 1; assay: Antiviral activity against ENF-resistant HIV1 NL4-3 harboring gp41 N-terminal heptad repeat V38M mutant infected in human TZM-bl cells assessed as inhibition of viral entry into cells after 48 hrs by single-cycle infection assay; assay type: functional, organism-based
[15] = tested on: Human immunodeficiency virus 1; assay: Antiviral activity against HIV-1 ZM214M.15 pseudovirus infected in human TZM-bl cells assessed as inhibition of viral entry into cells after 48 hrs by single-cycle infection assay; assay type: functional, organism-based; details: Human immunodeficiency virus 1, ZM214M.15, TZM-bl
[16] = tested on: Human immunodeficiency virus 1; assay: Ratio of IC50 for ENF-resistant HIV1 NL4-3 harboring gp41 N-terminal heptad repeat D36S/V38M double mutant to IC50 for wild type HIV1 NL4-3; assay type: functional
[17] = tested on: Human immunodeficiency virus 1; assay: Ratio of IC50 for ENF-resistant HIV1 NL4-3 harboring gp41 N-terminal heptad repeat Q40H mutant to IC50 for wild type HIV1 NL4-3; assay type: functional
[18] = tested on: Human immunodeficiency virus 1; assay: Antiviral activity against wild type HIV-1; assay type: functional, organism-based
Serum = assay: Metabolic stability in Sprague-Dawley rat serum at 4 mg/kg, ip measured at 0.5 to 2 hrs post dose; assay type: ADME, organism-based; details: in vivo
[19] = tested on: Human immunodeficiency virus 1; assay: Ratio of IC50 for ENF-resistant HIV1 NL4-3 harboring gp41 N-terminal heptad repeat V38M mutant to IC50 for wild type HIV1 NL4-3; assay type: functional
[20] = tested on: Human immunodeficiency virus 1; assay: Antiviral activity against ENF-resistant HIV1 NL4-3 harboring gp41 N-terminal heptad repeat D36G mutant infected in human TZM-bl cells assessed as inhibition of viral entry into cells after 48 hrs by single-cycle infection assay; assay type: functional, organism-based
[21] = tested on: Human immunodeficiency virus 1; assay: Antiviral activity against ENF-resistant HIV1 NL4-3 harboring gp41 N-terminal heptad repeat V38A/N42T double mutant infected in human TZM-bl cells assessed as inhibition of viral entry into cells after 48 hrs by single-cycle infection assay; assay type: functional, organism-based
[22] = tested on: Envelope glycoprotein gp160 (Human immunodeficiency virus 1), Q72502 [V38A]; assay: Binding affinity to HIV1 NL4-3 gp41 N-terminal heptad repeat V38A mutant after 30 mins by CD spectroscopic analysis
[23] = tested on: Human immunodeficiency virus 1; assay: Antiviral activity against wild type HIV1 NL4-3 infected in human TZM-bl cells assessed as inhibition of viral replication after 2 days by luciferase reporter gene assay; assay type: functional, organism-based; details: Human immunodeficiency virus 1, NL4-3, TZM-bl, 48 h
[24] = tested on: Human immunodeficiency virus 1; assay: Ratio of IC50 for ENF-resistant HIV1 NL4-3 harboring gp41 N-terminal heptad repeat D36G mutant to IC50 for wild type HIV1 NL4-3; assay type: functional
[25] = target: Envelope glycoprotein gp160 (Human immunodeficiency virus 1) (UniProt Q72502); assay: Binding affinity to HIV1 NL4-3 gp41 N-terminal heptad repeat I37T/N43K double mutant after 30 mins by CD spectroscopic analysis
[26] = target: Envelope glycoprotein gp160 (Human immunodeficiency virus 1) (UniProt Q72502); assay: Binding affinity to HIV1 NL4-3 gp41 N-terminal heptad repeat N43K mutant after 30 mins by CD spectroscopic analysis
[27] = tested on: Human immunodeficiency virus 1; assay: Antiviral activity against ENF-resistant HIV1 NL4-3 harboring gp41 N-terminal heptad repeat I37T/N43K double mutant infected in human TZM-bl cells assessed as inhibition of viral entry into cells after 48 hrs by single-cycle infection assay; assay type: functional, organism-based
[28] = target: Envelope glycoprotein gp160 (Human immunodeficiency virus 1) (UniProt Q72502); assay: Binding affinity to HIV1 NL4-3 gp41 N-terminal heptad repeat G36D mutant after 30 mins by CD spectroscopic analysis
[29] = tested on: Human immunodeficiency virus 1; assay: Antiviral activity against ENF-resistant HIV1 NL4-3 harboring gp41 N-terminal heptad repeat Q40H mutant infected in human TZM-bl cells assessed as inhibition of viral entry into cells after 48 hrs by single-cycle infection assay; assay type: functional, organism-based
[30] = Thermostability of the compound in PBS assessed as melting temperature at 20 uM by CD spectroscopic analysis; assay type: physicochemical; details: buffer
[31] = tested on: Human immunodeficiency virus 1; assay: Antiviral activity against HIV-1 pseudovirus harboring Q66R/N126K double mutant; assay type: functional, organism-based
[32] = tested on: Human immunodeficiency virus 1; assay: Ratio of IC50 for ENF-resistant HIV1 NL4-3 harboring gp41 N-terminal heptad repeat V38A/N42T double mutant to IC50 for wild type HIV1 NL4-3; assay type: functional
[33] = target: Envelope glycoprotein gp160 (Human immunodeficiency virus 1) (UniProt Q72502); assay: Binding affinity to HIV1 NL4-3 gp41 N-terminal heptad repeat I37T mutant after 30 mins by CD spectroscopic analysis
[34] = tested on: Human immunodeficiency virus 1; assay: Antiviral activity against HIV-1 SC42261.8 pseudovirus infected in human TZM-bl cells assessed as inhibition of viral entry into cells after 48 hrs by single-cycle infection assay; assay type: functional, organism-based; details: Human immunodeficiency virus 1, SC42261.8, TZM-bl
[35] = tested on: Human immunodeficiency virus 1; assay: Ratio of IC50 for ENF-resistant HIV1 NL4-3 harboring gp41 N-terminal heptad repeat V38A mutant to IC50 for wild type HIV1 NL4-3; assay type: functional
[36] = target: Envelope glycoprotein gp160 (Human immunodeficiency virus type 1 group M subtype B (isolate HXB2)(HIV-1), UniProt P04578); assay: Binding affinity to HIV-1 HXB2 gp41 N-terminal heptad repeat assessed as inhibition of 6-helix bundle formation after 30 mins by ELISA; design: species or system Human immunodeficiency virus 1

`CC[C@H](C)[C@H](NC(=O)[C@H](C)NC(=O)[C@H](CCCNC(=N)N)NC(=O)[C@H](CC(=O)O)NC(=O)[C@H](Cc1c[nH]c2ccccc12)NC(=O)[C@H](C)NC(=O)[C@H](CCC(=O)O)NC(=O)[C@H](Cc1c[nH]c2ccccc12)NC(=O)[C@@H](NC(=O)[C@@H](N)[C@@H](C)O)[C@@H](C)O)C(=O)N[C@@H](C)C(=O)N[C@@H](CCC(=O)O)C(=O)N[C@@H](Cc1ccc(O)cc1)C(=O)N[C@@H](C)C(=O)N[C@@H](C)C(=O)N[C@@H](CCCNC(=N)N)C(=O)N[C@H](C(=O)N[C@@H](CCC(=O)O)C(=O)N[C@@H](C)C(=O)N[C@@H](CC(C)C)C(=O)N[C@H](C(=O)N[C@@H](CCCNC(=N)N)C(=O)N[C@@H](C)C(=O)N[C@@H](C)C(=O)N[C@@H](CCC(N)=O)C(=O)N[C@@H](CCC(=O)O)C(=O)N[C@@H](CCC(N)=O)C(=O)N[C@@H](CCC(N)=O)C(=O)N[C@@H](CCC(=O)O)C(=O)N[C@@H](CCCCN)C(=O)N[C@@H](CC(N)=O)C(=O)N[C@@H](CCC(=O)O)C(=O)N[C@@H](C)C(=O)N[C@@H](C)C(=O)N[C@@H](CC(C)C)C(=O)N[C@@H](CCCNC(=N)N)C(=O)N[C@@H](CCC(=O)O)C(=O)N[C@@H](CC(C)C)C(=O)O)[C@@H](C)CC)[C@@H](C)CC` showed an IC50 [1] of 1.1 nM, an IC50 [2] of 1.15 nM and an IC50 [3] of 1.8 nM. For the same compound, the IC50 [4] was 1.2 nM, the IC50 [5] was 12.5 nM and the “Ratio IC50” value [6] was 1.6. For the same compound, the Tm [7] was 82.2 °C, the Activity [8] was “Active” and the IC50 [9] was 2.1 nM. The “Ratio IC50” value [10] was 1.6, the Activity [11] was “Active” and the “Ratio IC50” value [12] was 1.9. It also gave an IC50 [13] of 1.3 nM, an IC50 [14] of 1.8 nM and an IC50 [15] of 0.68 nM. The “Ratio IC50” value [16] was 1.1, the “Ratio IC50” value [17] was 1.3 and the IC50 [18] was 1.32 nM. For the same compound, the Stability (Serum) was “Stable”, the “Ratio IC50” value [19] was 1.6 and the IC50 [20] was 1.7 nM. The IC50 [21] was 0.8 nM, the Activity [22] was “Active” and the IC50 [23] was 0.52 nM. For the same compound, the “Ratio IC50” value [24] was 1.6, the Activity [25] was “Active” and the Activity [26] was “Active”. For the same compound, the IC50 [27] was 1.7 nM, the Activity [28] was “Active” and the IC50 [29] was 1.4 nM. The Tm [30] was 45.1 °C, the IC50 [31] was 8.36 nM and the “Ratio IC50” value [32] was 0.7. The Activity [33] was “Active”, the IC50 [34] was 2.64 nM and the “Ratio IC50” value [35] was 1.2. It also gave an IC50 [36] of 67.5 nM.

— ChEMBL document CHEMBL3600303, “The N-Terminal T-T Motif of a Third-Generation HIV-1 Fusion Inhibitor Is Not Required for Binding Affinity and Antiviral Activity” (J Med Chem, 2015)
